IC50 data for 2 compounds are collected here from ChEMBL document CHEMBL1201862, “PubChem BioAssay data set” (2004).

Calls of active or inactive are those of the source. Rule as the data show it: actives have a measured IC50 and inactives only a lower limit.

The target of this assay is Envelope glycoprotein gp160 (Human immunodeficiency virus 1, UniProt Q6QLK5). Put plainly: inhibitors of HIV fusion peptide binding, primary screen, biochemical, uHTS, fluorescence dequenching (AID 1986).
Sequence of Envelope glycoprotein gp160 (Q6QLK5 whole entry, the tested form may be a part): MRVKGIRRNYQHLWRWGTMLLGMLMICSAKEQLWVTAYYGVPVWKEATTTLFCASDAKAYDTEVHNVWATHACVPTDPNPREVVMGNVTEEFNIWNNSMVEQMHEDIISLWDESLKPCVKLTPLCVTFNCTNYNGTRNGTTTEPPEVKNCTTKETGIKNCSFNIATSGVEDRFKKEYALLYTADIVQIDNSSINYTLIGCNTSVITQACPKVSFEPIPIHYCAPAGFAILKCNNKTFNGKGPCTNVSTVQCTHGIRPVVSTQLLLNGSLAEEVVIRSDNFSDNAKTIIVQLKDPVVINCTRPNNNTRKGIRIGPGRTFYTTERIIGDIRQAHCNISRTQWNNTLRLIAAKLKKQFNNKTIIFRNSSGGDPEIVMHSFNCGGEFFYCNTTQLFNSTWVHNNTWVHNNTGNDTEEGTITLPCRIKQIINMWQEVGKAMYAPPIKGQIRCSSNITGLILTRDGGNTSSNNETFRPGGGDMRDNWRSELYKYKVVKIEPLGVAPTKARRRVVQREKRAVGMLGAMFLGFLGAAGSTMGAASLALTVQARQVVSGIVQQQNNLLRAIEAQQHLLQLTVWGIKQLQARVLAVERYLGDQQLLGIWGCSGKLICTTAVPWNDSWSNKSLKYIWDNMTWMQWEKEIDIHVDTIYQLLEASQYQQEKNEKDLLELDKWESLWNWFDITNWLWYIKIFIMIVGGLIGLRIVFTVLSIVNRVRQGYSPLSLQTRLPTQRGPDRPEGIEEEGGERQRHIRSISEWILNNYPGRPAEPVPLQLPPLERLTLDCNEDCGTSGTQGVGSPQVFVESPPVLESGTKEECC

For `CCCCCOc1ccc(C2C(C(=O)c3ccc(C)o3)=C(O)C(=O)N2c2cc(C)on2)cc1` (configuration not stated), the half-maximal inhibitory concentration (IC50) (as a rule, the concentration that gives 50% inhibition) is 22.8 µM (active). The result for `Cc1ccc(S(=O)(=O)Oc2ccc(/C=C3\C(=N)N4N=C(S(C)(=O)=O)SC4=NC3=O)cc2)cc1` reads 16.2 µM (active).
